Results on 1 compound are retold here after publication PMC6600523, “Interference with Amyloid-β Nucleation by Transient Ligand Interaction” (Molecules, 2019).

SMILES strings stand for the structures. Where a SMILES comes first, the peptide text is derived from it. [ ]: non-standard residue; d: D form.

Series [1] deals with T1, Aβ42 (Homo sapiens, UniProt P05067).
T1 construct: purchased Bachem H-1368.1000
Description: Sedimentation velocity AUC with fluorescence detection, Aβ42 and D3 mixtures. It is filed as binding. The settings on record: 0.33 μM FITC-Aβ42 with various D3 concentrations; 55 mM Tris-HCl, 50 mM NaCl pH 7.4, 0.01% Tw20; D3 concentration-dependent. The method, then: All measurements were performed using an XL-A analytical ultracentrifuge (Beckman coulter, Brea, CA, USA). […] All samples were prepared in 20 mM sodium phosphate, 50 mM NaCl (pH 7.4) containing 0.0004% PEI (w/v). Samples were then loaded into 3-mm double-sector titanium cells (Nanolytics, Potsdam, Germany), with each sector containing a 100 μL sample. The detection system uses an excitation laser at 488 nm and an emission cut-off filter at 505 nm to collect fluorescence signals. The amplification factor was adjusted to the same value for all samples for comparability. […] Data was acquired at 20 nm radial resolution. After thorough thermal equilibration the centrifugation was carried out at 60,000 rpm (289,000× g) at 20 °C for 15 h. Carrier proteins, such as albumin and kappa casein, are usually recommended to minimize unspecific surface adsorption for fluorescence-based AUC [56]. All sedimentation profiles were subjected to the software package SEDFIT (version 15.01b) for data evaluation. The data was analyzed with the continuous distribution c(s) Lamm equation model to obtain the sedimentation coefficient distributions. Fitting parameters (Table S1) including the buffer density and viscosity were determined using Sednterp (version 20130813BETA). […] Final graphs were generated using GUSSI (version 1.2.1) and sedimentation coefficients were standardized to s-values in pure water at 20 °C (s20,w).

Series [2] addresses T1, Aβ42. Description: Atomic force microscopy, morphologies of Aβ42 samples. Particulars: 20 mM sodium phosphate, 50 mM NaCl pH 7.4, 20 °C, AFM in air, AC mode. It is filed as biochemical. The method, then:
At 48 h and 120 h, 10 μL samples were pipetted onto freshly cleaved mica, and were further incubated at room temperature for 30 min. Mica with deposited samples were rinsed with ultrapure water for three times and finally dried with nitrogen gas. Atomic force microscopy (AFM) imaging was carried out in air at room temperature, using silicon cantilevers (OMCL AC160 TS, Olympus, Tokyo, Japan) and a JPK NanoWizard 3 microscope (JPK Instruments AG, Berlin, Germany) in AC mode. The nominal tip diameter of the cantilever was 7 nm. AFM height images at 10 × 10 μm^2 and 1 × 1 μm^2 (both with a resolution of 1024 × 1024 pixel) for all samples were taken with a line rate of 1 Hz and respective scanning speeds of 22.55 μm/s and 2.48 μm/s. Data was processed with JPK NanoWizard SPM data processing software.

The nature of series [3]: Sedimentation velocity AUC with fluorescence detection, labeled peptide alone. The settings on record: sedimentation velocity AUC-FDS of FITC-D3 alone, 0.2 μM, 20 mM sodium phosphate, 50 mM NaCl pH 7.4, 0.0004% PEI. The format is physicochemical. The method, then:
All measurements were performed using an XL-A analytical ultracentrifuge (Beckman coulter, Brea, CA, USA). […] All samples were prepared in 20 mM sodium phosphate, 50 mM NaCl (pH 7.4) containing 0.0004% PEI (w/v). Samples were then loaded into 3-mm double-sector titanium cells (Nanolytics, Potsdam, Germany), with each sector containing a 100 μL sample. The detection system uses an excitation laser at 488 nm and an emission cut-off filter at 505 nm to collect fluorescence signals. The amplification factor was adjusted to the same value for all samples for comparability. […] Data was acquired at 20 nm radial resolution. After thorough thermal equilibration the centrifugation was carried out at 60,000 rpm (289,000× g) at 20 °C for 15 h. Carrier proteins, such as albumin and kappa casein, are usually recommended to minimize unspecific surface adsorption for fluorescence-based AUC [56]. All sedimentation profiles were subjected to the software package SEDFIT (version 15.01b) for data evaluation. The data was analyzed with the continuous distribution c(s) Lamm equation model to obtain the sedimentation coefficient distributions. Fitting parameters (Table S1) including the buffer density and viscosity were determined using Sednterp (version 20130813BETA). […]

The target in series [4] is T1, Aβ42. Description: Seeding experiment, ThT kinetics of seeded Aβ42. Particulars: 20 mM sodium phosphate, 50 mM NaCl pH 7.4, 20 °C. The format is biochemical. The method, then: The sample was then incubated quiescently at room temperature for 120 h. […] Samples were pipetted to a 96-well plate, with each well containing 200 μL samples. The plate was then covered with a sealing film. ThT fluorescence of all samples was recorded using the same device and parameters, as described above for ThT assays. All samples were prepared in duplicate. Final data was normalized and averaged based on the repetitions.

T1 sequence (P05067 672-713 limits assumed): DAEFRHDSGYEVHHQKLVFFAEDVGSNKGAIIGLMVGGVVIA

In the case of `CC(C)C[C@@H](NC(=O)[C@@H](CCCNC(=N)N)NC(=O)[C@H](NC(=O)[C@@H](CCCNC(=N)N)NC(=O)[C@H]1CCCN1C(=O)[C@H](N)CCCNC(=N)N)[C@H](C)O)C(=O)N[C@H](Cc1c[nH]cn1)C(=O)N[C@@H](C(=O)N[C@H](Cc1c[nH]cn1)C(=O)N[C@H](CCCNC(=N)N)C(=O)N[C@H](CC(N)=O)C(=O)N[C@H](CCCNC(=N)N)C(N)=O)[C@H](C)O` [D3] (H-[dR][dP][dR][dT][dR][dL][dH][dT][dH][dR][dN][dR]-NH2), the “s20,w of new species formed on incubating D3 with FITC-Aβ42” value at Aβ42 [1] is on record as 1.54 ± 0.11 S. Besides, the “Morphology of Aβ42 incubated with D3, 48 h” value on Aβ42 [2] (40 μM Aβ42 with 4 μM D3 (0.1 equimolar), 48 h) is “no fibrils”. In addition, the “Morphology of Aβ42 incubated with D3, 120 h” value on Aβ42 [2] (40 μM Aβ42 with 4 μM D3, 120 h) is on record as “did not stop the fibril formation”. For the same compound, in series [3], the “Self-assembly or aggregation of D3 in solution” value is on record as “does not form any self-assemblies or aggregates”. Moreover, the “Effect on ThT kinetics of Aβ42 with 1% seeds” value on Aβ42 [4] (10 μM Aβ42, 1% seeds, 1 μM D3, compared with Aβ42 without D3) is on record as “longer lag phase”. Further, the “Effect on ThT kinetics of Aβ42 with 5% seeds” value on Aβ42 [4] (10 μM Aβ42, 5% seeds, 1 μM D3 (0.1-fold), slopes compared with Aβ42 with 5% seeds only) is “retardation of the elongation process”.
